This test has as its target recombinant eIF4E (Homo sapiens (Human), UniProt P06730). Description: Fluorescence polarization competition assay for eIF4E binding potency. In short, it runs like this:
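Protein and fluorescent cap-analog probe (EDA-m7GDP-ATTO-550) were mixed first for 5 min, after which serially diluted compound was added to final 75 nM eIF4E, 20 nM probe, 1% DMSO. Reactions equilibrated 30 min at room temperature before polarization was measured.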
(In general: Fluorescence polarisation rises when a labelled molecule tumbles more slowly, as on binding a larger partner.)

Setting [1] is: inhibition of eIF4E/EDA-m7GDP-ATTO-550 binding, calculated IC50 values, Table 4B, read-out: IC50.
Where [2] appears, read: fluorescence polarization competition, 75 nM recombinant eIF4E, 20 nM EDA-m7GDP-ATTO-550, IC50 class, read-out: elF4E FP.
The mark [3] stands for this setting: inhibition of eIF4E/EDA-m7GDP-ATTO-550 binding by 50%, Table 4B calculated values, read-out: IC50.

Like-named read-outs stand apart in the source and are kept apart here. Some results are limits rather than exact numbers.

Sequence of recombinant eIF4E (P06730 whole entry): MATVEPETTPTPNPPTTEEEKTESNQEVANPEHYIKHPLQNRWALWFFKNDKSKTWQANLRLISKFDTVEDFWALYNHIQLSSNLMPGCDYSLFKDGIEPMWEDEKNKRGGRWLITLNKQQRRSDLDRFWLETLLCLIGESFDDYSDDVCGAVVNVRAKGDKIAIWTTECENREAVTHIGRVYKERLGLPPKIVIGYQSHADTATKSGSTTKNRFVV

Take `Cc1nc2cnc(N3CCN(CC(F)C(F)(F)F)CC3)c(C#N)c2c(=O)n1CCOc1ccc(Cl)cc1-c1ccnc2c(C(=O)O)csc12` (centres unmarked) [compound 1358]: the IC50 under setting [1] was 18.3 nM. As for `COc1c(Cl)cc(-c2cc(Cl)ccc2OCCn2cnc3cnc(C#N)cc3c2=O)cc1C(=O)O` [compound 108], the IC50 was over 1000 nM under setting [2] and 11200 nM under setting [3]. Consider `Cc1nc2cc(F)c(C(F)F)c(C#N)c2c(=O)n1CCOc1ccc(Cl)cc1-c1ccnc2c(C(=O)O)csc12` [compound 230], for which the IC50 was under 50 nM under setting [2] and 14.9 nM under setting [3]. With `Cc1nc(N2CCN(C)C3CC32)c(C#N)c2c(=O)n(CCOc3ccc(Cl)cc3-c3ccnc4c(C(=O)O)csc34)c(C)nc12` (centres unmarked) [compound 603], the IC50 by setting is: under setting [2], under 50 nM; under setting [3], 11.7 nM. For `Cc1nc2cnc(N(C)C3CCN(C4CC(F)(F)C4)CC3)c(C#N)c2c(=O)n1CC#Cc1ccc(Cl)cc1-c1ccnc2c(C(=O)NS(C)(=O)=O)csc12` [compound 1108], in that order: under 50 nM and 29.1 nM.

As to `Cc1cnc(C)c(-c2nc3c(=O)n(CCOc4ccc(Cl)cc4-c4cc(C)nc5c(C(=O)O)csc45)c(C)nc3cc2C(F)(F)F)n1` [compound 1022], the IC50 under setting [2] was under 50 nM and the IC50 under setting [3] is 42.4 nM.

Consider `Cc1cc(-c2cc(Cl)ccc2OCCn2c(C)nc3cnc(N4CC(OC(F)F)C4)c(C#N)c3c2=O)c2scc(C(=O)O)c2n1` [compound 1041], for which the IC50 under setting [2] is under 50 nM and the IC50 under setting [3] is 6.21 nM. Consider `Cc1nc2cnc(N(C)C3CCN(CC(F)(F)F)CC3)c(C#N)c2c(=O)n1CC#Cc1ccc(Cl)cc1-c1ccnc2c(C(=O)NS(=O)(=O)c3cn(C)cn3)csc12` [compound 1667], for which, under setting [1], the IC50 was 12.2 nM. Take `Cc1nc2cc(OC(F)F)c(OC(F)F)c(C#N)c2c(=O)n1CCOc1ccc(Cl)cc1-c1ccnc2c(C(=O)O)csc12` [compound 541]: the IC50 is under 50 nM under setting [2] and 49.1 nM under setting [3]. The matching figures for `Cc1cc(-c2cc(Cl)ccc2OCCn2c(C)nc3c(F)cc(C(F)F)c(C#N)c3c2=O)c2scc(C(=O)O)c2n1` [compound 587]: under 50 nM and 25.5 nM. For `Cc1cc(-c2cc(Cl)ccc2OCCn2c(C)nc3c(C(F)(F)F)cc(Cl)nc3c2=O)c2scc(C(=O)O)c2n1` [compound 680], in that order: 50 to 1000 nM and 56.6 nM. The matching figures for `Cc1nc2cnc(C3CC3)c(C#N)c2c(=O)n1CCOc1ccc(Cl)cc1-c1cc(CF)nc2c(C(=O)O)csc12` [compound 917]: under 50 nM and 11 nM. On to `Cc1cc(-c2cc(Cl)ccc2OCCc2nc3cc(N4CCN(C)CC4)c(C(F)(F)F)cc3nc2C)c2scc(C(=O)O)c2n1` [compound 1211], for which the IC50 was 50 to 1000 nM under setting [2] and over 1000 nM under setting [1]. As for `Cc1nc2ccc(F)c(C#N)c2c(=O)n1CCOc1ccc(Cl)cc1-c1ccnc2c(C(=O)O)csc12` [compound 245], the IC50 is under 50 nM under setting [2] and 25.6 nM under setting [3]. The matching figures for `N#Cc1cc2c(=O)n(CCOc3ccc(Cl)cc3-c3cc4c(c(C(=O)O)c3)OCO4)cnc2cn1` [compound 96]: over 1000 nM and 2100 nM. As to `Cc1nc2cnc(C3CCN(CC(F)(F)F)CC3)c(C#N)c2c(=O)n1CCOc1ccc(Cl)cc1-c1ccnc2c(C(=O)O)csc12` [compound 1117], the IC50 by setting is: under setting [2], under 50 nM; under setting [3], 13.4 nM.

For the molecule `Cc1cc(-c2cc(Cl)ccc2OCCn2c(C)nc3cnc(C(C)C)c(C#N)c3c2=O)c2scc(C(=O)O)c2n1` [compound 432], the IC50 under setting [2] is under 50 nM and the IC50 under setting [3] was 25.8 nM. With `Cc1nc2cnc(N(C)C3CCN(C4CC(F)(F)C4)CC3)c(C#N)c2c(=O)n1CC#Cc1ccc(Cl)cc1-c1ccnc2c(C(=O)NS(=O)(=O)CC(C)(C)C#N)csc12` [compound 1827], the IC50 under setting [1] was 14.8 nM. `Cc1nc2cc(C#N)c(CN(C)C)c(C#N)c2c(=O)n1CCOc1ccc(Cl)cc1-c1ccnc2c(C(=O)O)csc12` [compound 510]: the IC50 runs as follows: under setting [2], 50 to 1000 nM; under setting [3], 50.5 nM.

In the case of `Cc1nc2cnc(N(C)C3CCN(CC4CC4)CC3)c(C#N)c2c(=O)n1CCOc1ccc(Cl)cc1-c1ccnc2c(C(=O)O)csc12` [compound 1370], the IC50 under setting [1] is 19.9 nM.

As for `Cc1nc2cc(C(F)(F)F)cc(C#N)c2c(=O)n1CCOc1ccc(Cl)cc1-c1cc(C(=O)O)nc2ccsc12` [compound 201], the IC50 is, setting by setting: under setting [2], 50 to 1000 nM; under setting [3], 354 nM. `C#Cc1c(C(=O)O)cccc1-c1cc(Cl)ccc1OCCn1c(C)nc2ccc(C(F)F)c(C#N)c2c1=O` [compound 55]: the IC50 is under 50 nM under setting [2] and 21.6 nM under setting [3]. Turning to `Cc1nc2cnc(C3CC3)c(C#N)c2c(=O)n1CCOc1ccc(Cl)cc1Sc1nc(C(=O)O)cs1` [compound 922], the IC50 under setting [2] fell in the range of 50 to 1000 nM and the IC50 under setting [3] is 89.4 nM. For `Cc1nc2c(F)c(F)c(C(F)F)c(C#N)c2c(=O)n1CCOc1ccc(Cl)cc1-c1ccnc2c(C(=O)O)csc12` [compound 298], in that order: 50 to 1000 nM and 101 nM. For `Cc1cc(-c2cc(Cl)ccc2OCCn2c(C)nc3cc(C(F)(F)F)c(-c4cnsc4)c(C#N)c3c2=O)c2scc(C(=O)O)c2n1` [compound 347], in that order: under 50 nM and 32.1 nM.

On to `Cc1cc(-c2cc(Cl)ccc2C#CCn2c(C)nc3cc(C(F)(F)F)c(CN4CCN(C)CC4)c(C#N)c3c2=O)c2scc(C(=O)O)c2n1` [compound 616], for which the IC50 under setting [2] was under 50 nM and the IC50 under setting [3] was 2.45 nM. For `Cc1nc2cnc(N3CCN(CCF)CC3)c(C#N)c2c(=O)n1CCOc1ccc(Cl)cc1-c1ccnc2c(C(=O)O)csc12` [compound 1302], the IC50 under setting [1] was 30.7 nM. Same read-out and setting: under `Cc1nc2cnc(N(C)C3CCN(C4CC(F)(F)C4)CC3)c(C#N)c2c(=O)n1CC#Cc1ccc(Cl)cc1-c1ccnc2c(C(=O)NS(=O)(=O)CC#N)csc12` [compound 1825] stands 17.1 nM.

`Cc1cc(-c2cc(Cl)ccc2OCCn2c(C)nc3cc(C(F)(F)F)c(C4CN(C)C4)c(C#N)c3c2=O)c2scc(C(=O)O)c2n1` [compound 652]: the IC50 under setting [2] is under 50 nM and the IC50 under setting [3] was 6.68 nM. With `Cc1nc2cc(C(F)(F)F)cc(C#N)c2c(=O)n1CCOc1ccc(Cl)cc1-c1ncnc2c(C(=O)O)csc12` [compound 215], the IC50 under setting [2] was 50 to 1000 nM. Regarding `Cc1nc2cnc(N3CC4(CCN4CC(C)(C)F)C3)c(C#N)c2c(=O)n1CCOc1ccc(Cl)cc1-c1ccnc2c(C(=O)O)csc12` [compound 1635], under setting [1], the IC50 is 21.5 nM. Same read-out and setting: in the case of `Cc1nc2cc(C(F)(F)F)cc(C#N)c2c(=O)n1CCOc1ccc(Cl)cc1-c1ccc(F)c2c(C(=O)O)csc12` [compound 2018] it was 24.4 nM. Same read-out and setting: in the case of `Cc1nc2cnc(C#CC3(N(C)C)CC3)c(C#N)c2c(=O)n1CCOc1ccc(Cl)cc1-c1ccnc2c(C(=O)O)csc12` [compound 1329] it was 35.2 nM. As to `Cc1nc2cc(C(F)(F)F)cc(C#N)c2c(=O)n1CCOc1ccc(Cl)cc1-c1ccnc2c(C(=O)O)c(Cl)sc12` [compound 266], the IC50 reads like this: under setting [2], under 50 nM; under setting [3], 26.6 nM. Regarding `Cc1nc2cc(C(F)(F)F)cc(C#N)c2c(=O)n1CCOc1ccc(Cl)cc1-c1ccnc2c(C(=O)O)csc12` [Compound 272], the IC50 is, setting by setting: under setting [2], under 50 nM; under setting [3], 22.9 nM. As for `Cc1nc2cnc(N(C)C3CCN([C@H]4C[C@H](OC(F)F)C4)CC3)c(C#N)c2c(=O)n1CC#Cc1ccc(Cl)cc1-c1ccnc2c(C(=O)NS(C)(=O)=O)csc12` [compound 1761], the IC50 under setting [1] is 5.65 nM.

For `Cc1cc(-c2cc(Cl)ccc2OCCn2c(C)nc3cnc(N4CC(OC(C)(C)C)C4)c(C#N)c3c2=O)c2scc(C(=O)O)c2n1` [compound 1045], the IC50 was under 50 nM under setting [2] and 38.2 nM under setting [3]. The matching figures for `Cc1cc(-c2cc(Cl)ccc2OCCn2c(C)nc3c(C)nc(C(F)F)c(C#N)c3c2=O)c2scc(C(=O)O)c2n1` [compound 728]: under 50 nM and 31 nM. Take `CCCCc1nc2c(=O)n(CCOc3ccc(Cl)cc3-c3cc(C)nc4c(C(=O)O)csc34)c(C)nc2cc1C(F)(F)F` [compound 391]: the IC50 runs as follows: under setting [2], under 50 nM; under setting [3], 3.52 nM. For `Cc1cc(-c2cc(Cl)ccc2OCCn2c(C)nc3cnc(C4(C)CC4)c(C#N)c3c2=O)c2scc(C(=O)O)c2n1` [compound 831], in that order: under 50 nM and 12.3 nM. For the molecule `Cc1nc2cc(C(F)(F)F)c(CCN(C)C)c(C#N)c2c(=O)n1CC#Cc1ccc(Cl)cc1-c1ccnc2c(C(=O)O)csc12` [compound 1298], under setting [1], the IC50 is 38.3 nM. As to `Cc1nc2cnc(N(C)C3CCN(CCC(C)(F)F)CC3)c(C#N)c2c(=O)n1CC#Cc1ccc(Cl)cc1-c1ccnc2c(C(=O)O)csc12` [compound 1190], the IC50 under setting [2] was under 50 nM and the IC50 under setting [1] was 7.3 nM. The matching figures for `CCc1cc(-c2cc(Cl)ccc2OCCn2c(C)nc3cnc(N4CCC(O)C4)c(C#N)c3c2=O)c2scc(C(=O)O)c2n1` (centres unmarked) [compound 1235]: under 50 nM and 6.32 nM. Consider `Cc1nc2cnc(N3CCN(C4COC4)CC3)c(C#N)c2c(=O)n1CC#Cc1ccc(Cl)cc1-c1ccnc2c(C(=O)O)csc12` [compound 1321], for which the IC50 under setting [1] is 60.2 nM.

`Cc1nc2cnc(N(C)C3CCN(CC(C)(C)F)CC3)c(C#N)c2c(=O)n1CC#Cc1ccc(Cl)cc1-c1ccnc2c(C(=O)O)csc12` [compound 1142]: the IC50 was under 50 nM under setting [2] and 13 nM under setting [3]. For `Cc1nc2c(F)cc(C(F)F)c(C#N)c2c(=O)n1CCOc1ccc(Cl)cc1-c1ccnc2c(C(=O)O)csc12` [compound 22], in that order: under 50 nM and 24.9 nM. With `Cc1nc2cnc(N3CC4(CCN4C4CC4)C3)c(C#N)c2c(=O)n1CC#Cc1ccc(Cl)cc1-c1ccnc2c(C(=O)O)csc12` [compound 1525], the IC50 under setting [1] was 15.1 nM.
